This passage reports TGI results from PubChem BioAssay (NCI).

Some test systems named below: CCRF-CEM leukemia; TK-10 renal; SF-295 CNS; EKVX NSCLC; HT29 colon; HCC-2998 colon; IGROV1 ovarian; SF-268 CNS; SF-539 CNS; SK-MEL-2 melanoma.
What all share (experiment): NCI-60 cell line screen, 48 h

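48-hour exposure; five concentrations; linearly interpolated endpoints. TGI: total growth inhibition.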

For `CN(C)c1ccc(-c2nc(-c3cc4c(ccc5ccccc54)oc3=O)cs2)cc1`, the TGI in the test with CCRF-CEM leukemia, with TK-10 renal, in the test on SF-295 CNS, in the test on EKVX NSCLC, in the test on HT29 colon and in the test on HCC-2998 colon was more than 100 µM in each case. Besides, the TGI in the test on IGROV1 ovarian, in the test with SF-268 CNS, with SF-539 CNS and in the test on SK-MEL-2 melanoma was more than 100 µM each time.

For `COc1ccc(/C=N/Nc2[nH]c(=S)nc3[nH]ncc23)cc1`, the TGI in the test with CCRF-CEM leukemia was more than 100 µM; with TK-10 renal, 65.9 µM; with SF-295 CNS, more than 100 µM; with EKVX NSCLC, more than 100 µM; with HT29 colon, more than 100 µM; in the test with HCC-2998 colon, more than 100 µM. Further, the TGI was 68.2 µM in the test on IGROV1 ovarian, more than 100 µM in the test on SF-268 CNS, more than 100 µM in the test with SF-539 CNS and more than 100 µM with SK-MEL-2 melanoma.

For the molecule `COc1ccc(C2CC(c3c(C)nn(-c4ccccc4)c3-c3ccc(C)cc3O)=NN2c2ccccc2)cc1` (centres undefined), the TGI with CCRF-CEM leukemia was more than 100 µM; in the test with TK-10 renal, more than 100 µM; with SF-295 CNS, more than 100 µM; in the test on EKVX NSCLC it was more than 100 µM; in the test with HT29 colon it was more than 44 µM; in the test on HCC-2998 colon it was more than 100 µM. Moreover, the TGI in the test with IGROV1 ovarian was more than 100 µM; with SF-268 CNS, more than 100 µM; in the test with SF-539 CNS, more than 100 µM; in the test on SK-MEL-2 melanoma, more than 52.3 µM.

Regarding `COc1ccccc1C(=O)c1c(N2CCCCC2)c(=O)c1=O`, the TGI in the test with CCRF-CEM leukemia, with TK-10 renal, in the test on SF-295 CNS, in the test on EKVX NSCLC, in the test with HT29 colon and in the test with HCC-2998 colon was more than 100 µM throughout. For the same molecule, the TGI in the test on IGROV1 ovarian, in the test with SF-268 CNS, in the test with SF-539 CNS and in the test with SK-MEL-2 melanoma was more than 100 µM throughout.

`O=C(Nc1cccc2nsnc12)c1cc2c(cc1Cl)Sc1nccn1S2(=O)=O`: the TGI in the test with CCRF-CEM leukemia is more than 36.6 µM; in the test with TK-10 renal it was 16.3 µM; in the test with SF-295 CNS, 28.2 µM; in the test with EKVX NSCLC it was 11.1 µM; with HT29 colon it was 7.67 µM; in the test on HCC-2998 colon, 11.7 µM. Further, the TGI was 46.6 µM in the test with IGROV1 ovarian, 20.4 µM in the test on SF-268 CNS, 10 µM in the test with SF-539 CNS and 26.4 µM with SK-MEL-2 melanoma.

`C=C[C@]1(C)CC[C@]2(C)C(CC[C@@]3(C)C2C[C@H](O)[C@H](O)[C@@]3(C)O)C1` (some centres undefined): the TGI in the test with CCRF-CEM leukemia, with TK-10 renal, in the test on SF-295 CNS, in the test on EKVX NSCLC, in the test on HT29 colon and in the test with HCC-2998 colon was more than 100 µM throughout. For the same molecule, the TGI in the test with IGROV1 ovarian, with SF-268 CNS, in the test on SF-539 CNS and with SK-MEL-2 melanoma was more than 100 µM in each case.

As for `O=C(C[C@@H]1NCCC[C@H]1O)Cn1cnc2cc(Br)c(Cl)cc2c1=O`, the TGI in the test on CCRF-CEM leukemia was more than 100 µM; in the test with SF-295 CNS, 0.337 µM; in the test on EKVX NSCLC, 0.803 µM; in the test with HT29 colon, 0.191 µM; in the test on HCC-2998 colon it was 0.352 µM; in the test with IGROV1 ovarian, 0.158 µM. In addition, the figures for the TGI with SF-268 CNS, in the test on SF-539 CNS and in the test on SK-MEL-2 melanoma were 0.61 µM, 0.347 µM and 0.05 µM, respectively.

Take `CC(C)=CC(=O)O[C@@H]1CC(C)(C)CC2C3=CCC4[C@]56CC[C@](O)(OC5)C(C)(C)C6CC[C@@]4(C)C3(C)CC[C@]21C(=O)O` (some centres undefined): the TGI with CCRF-CEM leukemia, in the test on TK-10 renal, in the test with SF-295 CNS, with EKVX NSCLC, in the test with HT29 colon and in the test with HCC-2998 colon was more than 100 µM in each case. For the same molecule, the TGI with IGROV1 ovarian, with SF-268 CNS, in the test on SF-539 CNS and with SK-MEL-2 melanoma was more than 100 µM throughout.

Take `Cc1ccc(S(=O)(=O)Nn2c(-c3ccccc3)c(C#N)c(-c3ccc([N+](=O)[O-])cc3)c(C#N)c2=O)cc1`: the TGI in the test with CCRF-CEM leukemia, in the test with TK-10 renal, with SF-295 CNS, with EKVX NSCLC, with HT29 colon and in the test on HCC-2998 colon was more than 100 µM throughout. In addition, the TGI with IGROV1 ovarian, with SF-268 CNS, with SF-539 CNS and in the test on SK-MEL-2 melanoma was more than 100 µM throughout.

In the case of `CC1=NNC(N)=N/C1=C/C(Sc1ccc(Cl)cc1)c1cccs1` (centres undefined), the TGI in the test with CCRF-CEM leukemia is 9.79 µM; with TK-10 renal it was more than 100 µM; in the test on SF-295 CNS, 31.3 µM; with EKVX NSCLC, 30.3 µM; in the test on HT29 colon, 25.4 µM; in the test on HCC-2998 colon, 26.9 µM. For the same molecule, the TGI in the test on IGROV1 ovarian is 29 µM; with SF-268 CNS, 30.5 µM; with SK-MEL-2 melanoma, 27.4 µM.

Regarding `COc1ccc(Cn2nc(OCc3ccccn3)c3cc([N+](=O)[O-])ccc32)cc1`, the TGI in the test on CCRF-CEM leukemia, in the test on TK-10 renal, with SF-295 CNS, with HT29 colon, in the test with HCC-2998 colon and with IGROV1 ovarian was more than 100 µM throughout. In addition, the TGI in the test with SF-268 CNS, with SF-539 CNS and with SK-MEL-2 melanoma was more than 100 µM in each case.

With `O=c1c(Cc2ccc(Cl)cc2)nnc2sc(-c3ccc([N+](=O)[O-])cc3)nn12`, the TGI in the test with CCRF-CEM leukemia was 55.8 µM; in the test on TK-10 renal, 68.4 µM; with SF-295 CNS, more than 100 µM; with EKVX NSCLC, 64.4 µM; with HT29 colon, more than 100 µM; in the test with HCC-2998 colon, 42.6 µM. For the same molecule, the TGI is more than 100 µM in the test with IGROV1 ovarian, more than 100 µM in the test on SF-268 CNS and 33.7 µM in the test with SK-MEL-2 melanoma.

With `O=S1(=O)NNC(=NCc2ccc(F)cc2)c2ccccc21`, the TGI in the test on CCRF-CEM leukemia is more than 72.7 µM; in the test on SF-295 CNS, more than 100 µM; in the test with EKVX NSCLC, more than 100 µM; in the test on HT29 colon, more than 100 µM; with HCC-2998 colon it was more than 100 µM; in the test with IGROV1 ovarian it was more than 100 µM. Besides, the TGI in the test with SF-268 CNS, in the test on SF-539 CNS and in the test with SK-MEL-2 melanoma was more than 100 µM in each case.

For `Cc1cs/c(=N\C(P(=O)(O)O)P(=O)(O)O)n1C`, the TGI in the test with CCRF-CEM leukemia, with TK-10 renal, in the test on SF-295 CNS, in the test with EKVX NSCLC, with HT29 colon and with HCC-2998 colon was more than 100 µM throughout. For the same molecule, the TGI in the test on IGROV1 ovarian, in the test with SF-268 CNS and in the test with SF-539 CNS was more than 100 µM in each case.
